≈ marks a conversion by molar mass, not a printed value.
Columns and labels:
Assay type in all cases: functional
Bacillus subtilis [1] = experiment: Antibacterial activity against Bacillus subtilis NCIM 2010 at 3 ug/ml measured after 12 hrs by spectrophotometric method; details: NCIM 2010, 12 h
Escherichia coli [2] = experiment: Antibacterial activity against Escherichia coli NCIM 2688 at 30 ug/ml measured after 8 hrs by spectrophotometric method; details: NCIM 2688, 8 h
Pseudomonas aeruginosa [3] = experiment: Antibacterial activity against Pseudomonas aeruginosa NCIM 2036 at 30 ug/ml measured after 8 hrs by spectrophotometric method; details: NCIM 2036, 8 h
[4] = tested on: Mycobacterium tuberculosis; experiment: Antitubercular activity against dormant stage Mycobacterium tuberculosis H37Ra at 10 ug/ml measured after 12 days by XTT assay; details: 288 h
[5] = tested on: Mycobacterium tuberculosis; experiment: Antitubercular activity against active stage Mycobacterium tuberculosis H37Ra measured after 8 days by XTT assay; details: 192 h
Bacillus subtilis [6] = experiment: Antibacterial activity against Bacillus subtilis NCIM 2010 measured after 12 hrs by spectrophotometric method; details: NCIM 2010, 12 h
[7] = tested on: Mycobacterium tuberculosis; experiment: Antitubercular activity against dormant stage Mycobacterium tuberculosis H37Ra measured after 12 days by XTT assay; details: 288 h
Escherichia coli [8] = experiment: Antibacterial activity against Escherichia coli NCIM 2688 at 10 ug/ml measured after 8 hrs by spectrophotometric method; details: NCIM 2688, 8 h
Pseudomonas aeruginosa [9] = experiment: Antibacterial activity against Pseudomonas aeruginosa NCIM 2036 at 10 ug/ml measured after 8 hrs by spectrophotometric method; details: NCIM 2036, 8 h
Escherichia coli [10] = experiment: Antibacterial activity against Escherichia coli NCIM 2688 measured after 8 hrs by spectrophotometric method; details: NCIM 2688, 8 h
Bacillus subtilis [11] = experiment: Antibacterial activity against Bacillus subtilis NCIM 2010 at 10 ug/ml measured after 12 hrs by spectrophotometric method; details: NCIM 2010, 12 h
Staphylococcus aureus [12] = experiment: Antibacterial activity against Staphylococcus aureus NCIM 2079 at 3 ug/ml measured after 12 hrs by spectrophotometric method; details: NCIM 2079, 12 h
Bacillus subtilis [13] = experiment: Antibacterial activity against Bacillus subtilis NCIM 2010 at 30 ug/ml measured after 12 hrs by spectrophotometric method; details: NCIM 2010, 12 h
Staphylococcus aureus [14] = experiment: Antibacterial activity against Staphylococcus aureus NCIM 2079 measured after 12 hrs by spectrophotometric method; details: NCIM 2079, 12 h
[15] = tested on: Mycobacterium tuberculosis; experiment: Antitubercular activity against dormant stage Mycobacterium tuberculosis H37Ra at 3 ug/ml measured after 12 days by XTT assay; details: 288 h
[16] = tested on: Mycobacterium tuberculosis; experiment: Antitubercular activity against dormant stage Mycobacterium tuberculosis H37Ra at 30 ug/ml measured after 12 days by XTT assay; details: 288 h
Pseudomonas aeruginosa [17] = experiment: Antibacterial activity against Pseudomonas aeruginosa NCIM 2036 at 3 ug/ml measured after 8 hrs by spectrophotometric method; details: NCIM 2036, 8 h
Staphylococcus aureus [18] = experiment: Antibacterial activity against Staphylococcus aureus NCIM 2079 at 10 ug/ml measured after 12 hrs by spectrophotometric method; details: NCIM 2079, 12 h
Staphylococcus aureus [19] = experiment: Antibacterial activity against Staphylococcus aureus NCIM 2079 at 30 ug/ml measured after 12 hrs by spectrophotometric method; details: NCIM 2079, 12 h
Escherichia coli [20] = experiment: Antibacterial activity against Escherichia coli NCIM 2688 at 3 ug/ml measured after 8 hrs by spectrophotometric method; details: NCIM 2688, 8 h
Pseudomonas aeruginosa [21] = experiment: Antibacterial activity against Pseudomonas aeruginosa NCIM 2036 measured after 8 hrs by spectrophotometric method; details: NCIM 2036, 8 h

| SMILES | inhibition at 3 µg/mL (Bacillus subtilis [1]) [%] | inhibition at 30 µg/mL (Escherichia coli [2]) [%] | inhibition at 30 µg/mL (Pseudomonas aeruginosa [3]) [%] | inhibition at 10 µg/mL [4] [%] | IC50 [5] [µg/mL] | MIC [5] [µg/mL] | IC50 (Bacillus subtilis [6]) [µg/mL] | MIC (Bacillus subtilis [6]) [µg/mL] | IC50 [7] [µg/mL] | MIC [7] [µg/mL] | inhibition at 10 µg/mL (Escherichia coli [8]) [%] | inhibition at 10 µg/mL (Pseudomonas aeruginosa [9]) [%] | IC50 (Escherichia coli [10]) [µg/mL] | MIC (Escherichia coli [10]) [µg/mL] | inhibition at 10 µg/mL (Bacillus subtilis [11]) [%] | inhibition at 3 µg/mL (Staphylococcus aureus [12]) [%] | inhibition at 30 µg/mL (Bacillus subtilis [13]) [%] | IC50 (Staphylococcus aureus [14]) [µg/mL] | MIC (Staphylococcus aureus [14]) [µg/mL] | inhibition at 3 µg/mL [15] [%] | other results |
| --- | --- | --- | --- | --- | --- | --- | --- | --- | --- | --- | --- | --- | --- | --- | --- | --- | --- | --- | --- | --- | --- |
| CC(=O)NC[C@H]1CN(c2ccc(N3CCOCC3)c(F)c2)C(=O)O1 [LINEZOLID] | 98.9 | 100 | 99.9 | 96.6 | 0.8 (≈ 2.37 µM) | 1.31 (≈ 3.88 µM) | 0.64 (≈ 1.9 µM) | 1.8 (≈ 5.34 µM) | 0.71 (≈ 2.1 µM) | 1.25 (≈ 3.71 µM) | 99.8 | 99 | 0.49 (≈ 1.45 µM) | 1.15 (≈ 3.41 µM) | 99.4 | 99.5 | 99.8 | 0.42 (≈ 1.24 µM) | 1.13 (≈ 3.35 µM) | 84 | inhibition at 30 µg/mL [16]: 95.5%; inhibition at 3 µg/mL (Pseudomonas aeruginosa [17]): 99.2%; inhibition at 10 µg/mL (Staphylococcus aureus [18]): 99.5%; inhibition at 30 µg/mL (Staphylococcus aureus [19]): 99.1%; inhibition at 3 µg/mL (Escherichia coli [20]): 99.3%; IC50 (Pseudomonas aeruginosa [21]): 0.49 µg/mL (≈ 1.45 µM); MIC (Pseudomonas aeruginosa [21]): 1.31 µg/mL (≈ 3.88 µM) |
| O=C(NC[C@H]1CN(c2ccc(N3CC4(COC4)C3)c(F)c2)C(=O)O1)c1ccno1 | 90.5 | 99.9 | 98.9 | 18.2 | 6.4 (≈ 15.9 µM) | 10.9 (≈ 27.1 µM) | 0.49 (≈ 1.22 µM) | 2.35 (≈ 5.84 µM) | 9.58 (≈ 23.8 µM) | 21.2 (≈ 52.8 µM) | 93.3 | 94.9 | 0.71 to 0.72 (≈ 1.76 to 1.79 µM) | 4.56 to 4.6 (≈ 11.3 to 11.4 µM) | 97.3 | 95.1 | 100 | 0.88 (≈ 2.19 µM) | 2.05 (≈ 5.09 µM) | 4.35 | inhibition at 30 µg/mL [16]: 95.4%; inhibition at 3 µg/mL (Pseudomonas aeruginosa [17]): 90.8%; inhibition at 10 µg/mL (Staphylococcus aureus [18]): 98.2%; inhibition at 30 µg/mL (Staphylococcus aureus [19]): 98.5%; inhibition at 3 µg/mL (Escherichia coli [20]): 88.3%; IC50 (Pseudomonas aeruginosa [21]): 0.51 µg/mL (≈ 1.27 µM); MIC (Pseudomonas aeruginosa [21]): 2.57 µg/mL (≈ 6.39 µM) |
| O=C1O[C@@H](CNC(=S)Nc2ccccc2F)CN1c1ccc(N2CC3(COC3)C2)c(F)c1 | 81 | 51.9 | 96 | 57.4 | 16.3 (≈ 35.5 µM) | 41.1 (≈ 89.3 µM) | 1.31 (≈ 2.84 µM) | 5.18 (≈ 11.2 µM) | 22.8 (≈ 49.6 µM) | 41.6 (≈ 90.4 µM) | 42.8 | 87.4 | > 100 | > 100 | 96.6 | 85.9 | 101 | 0.6 (≈ 1.3 µM) | 5.76 (≈ 12.5 µM) | 25.1 | inhibition at 30 µg/mL [16]: 87.6%; inhibition at 3 µg/mL (Pseudomonas aeruginosa [17]): 77.8%; inhibition at 10 µg/mL (Staphylococcus aureus [18]): 95.7%; inhibition at 30 µg/mL (Staphylococcus aureus [19]): 99.3%; inhibition at 3 µg/mL (Escherichia coli [20]): 25%; IC50 (Pseudomonas aeruginosa [21]): 0.98 µg/mL (≈ 2.13 µM); MIC (Pseudomonas aeruginosa [21]): 15.9 µg/mL (≈ 34.5 µM) |
| CC(=O)NC[C@H]1CN(c2ccc(C3=C[C@H]4CC[C@@H](C3)N4C(=O)OC(C)(C)C)c(F)c2)C(=O)O1 | 85.7 | 98.7 | 93.9 | 79.6 | 12.3 (≈ 26.8 µM) | 21.4 (≈ 46.6 µM) | 0.55 (≈ 1.2 µM) | 5.67 (≈ 12.3 µM) | 10.8 (≈ 23.6 µM) | 20.5 (≈ 44.6 µM) | 94.4 | 88.3 | 0.57 (≈ 1.24 µM) | 3.66 (≈ 7.96 µM) | 97.3 | 90.5 | 99.1 | 0.74 (≈ 1.61 µM) | 2.95 (≈ 6.42 µM) | 34.8 | inhibition at 30 µg/mL [16]: 94.2%; inhibition at 3 µg/mL (Pseudomonas aeruginosa [17]): 83.8%; inhibition at 10 µg/mL (Staphylococcus aureus [18]): 97.9%; inhibition at 30 µg/mL (Staphylococcus aureus [19]): 99.1%; inhibition at 3 µg/mL (Escherichia coli [20]): 89.2%; IC50 (Pseudomonas aeruginosa [21]): 0.67 µg/mL (≈ 1.46 µM); MIC (Pseudomonas aeruginosa [21]): 15.1 µg/mL (≈ 32.8 µM) |
| CC(=O)NC[C@H]1CN(c2ccc(N3CC4(COC4)C3)c(F)c2)C(=O)O1 | 88.8 | 28.8 | 98.5 | 94.7 | 1.56 (≈ 4.47 µM) | 2.55 (≈ 7.3 µM) | 0.65 (≈ 1.86 µM) | 3.46 (≈ 9.9 µM) | 2.07 (≈ 5.93 µM) | 3.1 (≈ 8.87 µM) | 17.4 | 91.9 | > 100 | > 100 | 95.4 | 90.4 | 100 | 0.53 (≈ 1.52 µM) | 2.9 (≈ 8.3 µM) | 15.1 | inhibition at 30 µg/mL [16]: 95.2%; inhibition at 3 µg/mL (Pseudomonas aeruginosa [17]): 85.5%; inhibition at 10 µg/mL (Staphylococcus aureus [18]): 91.8%; inhibition at 30 µg/mL (Staphylococcus aureus [19]): 99.5%; inhibition at 3 µg/mL (Escherichia coli [20]): 3.06%; IC50 (Pseudomonas aeruginosa [21]): 0.58 µg/mL (≈ 1.66 µM); MIC (Pseudomonas aeruginosa [21]): 6.4 µg/mL (≈ 18.3 µM) |
